Reference: US5886025A, “Anti-mitotic agents which inhibit tubulin polymerization” (Baylor University, priority 1997, dated 1999)
In brackets after ≈: the same amount, converted by molar mass. Entries after “also recorded” stand apart in the source; their conditions may differ. Structures can show the parent of a compound that is named as a salt. Where two headings read alike, the source gives them in different places.

Tests used:
tubulin [1] = test: tubulin polymerization assay; assay type: biochemical, bovine
Procedure: The ability of the various above described compounds to inhibit tubulin polymerization can be determined by in vitro assay. A suitable assay system is that described by Bai et al A method for purifying tubulin from bovine brain cells is described by Hamel and Lin.
IC50 values for tubulin polymerization were determined according to the procedure described in Bai et al. Purified tubulin is obtained from bovine brain cells as described in Hamel and Lin. Various amounts of inhibitor were preincubated for 15 minutes at 37° C. with purified tubulin. After the incubation period, the reaction was cooled and GTP was added to induce tubulin polymerization. Polymerization was then monitored in a Gilford spectrophotometer at 350 nm. The final reaction mixtures (0.25 ml) contained 1.5 mg/ml tubulin, 0.6 mg/ml microtubule-associated proteins (MAPs), 0.5 mM GTP, 0.5 mM MgCl2, 4% DMSO and 0.1M 4-morpholineethanesulfonate buffer (MES, pH 6.4).

P388 leukemia cells = test: cytotoxic assay with P388 leukemia cells; assay type: cell-based; conditions: for IC50: Mus musculus
Text: The tubulin polymerization compounds can also be tested for their ability to inhibit tumor cell growth.

tubulin [2] = conditions: cited from earlier work
tubulin [3] = conditions: cis or Z form vs trans or E; cited from earlier work
[4] = treatment of Chagas' disease, cited from earlier work
estrogen = conditions: cited from earlier work
[5] = relative to tamoxifen; cited from earlier work
[6] = P388, read-out: ED50 (effective dosage required to inhibit 50% of cell growth)

Compound	inhibition of tubulin polymerization (tubulin [1])	activity against P388 leukemia cells (P388 leukemia cells; P388 leukemia cells)	IC50 (P388 leukemia cells; [6])	further results
COc1ccc(-c2sc3cc(OC)ccc3c2C(=O)c2c(OC)cccc2OC)cc1 [2,6-dimethoxybenzoyl, 3-(2', 6'-dimethoxybenzoyl)-2-(4'-methoxyphenyl)-6-methoxybenzo[b]thiophene]	no observable tubulin polymerization inhibition activity; also recorded: failed to inhibit tubulin polymerization	failed to show measurable activity	–	IC50 (P388 leukemia cells; read-out: ED50 (effective dosage required to inhibit 50% of cell growth), P388 leukemia cells): > 100 µg/mL
COc1cc2c(cc1O)CC[C@@H]1[C@@H]2CC[C@]2(C)[C@@H](O)CC[C@@H]12 [2-methoxyestradiol]	–	–	–	inhibition of tubulin polymerization (tubulin [2]): viable inhibitor of tubulin polymerization
COc1ccc(-c2sc3cc(OC)ccc3c2C(=O)c2cc(OC)c(O)c(OC)c2)cc1 [3,5-dimethoxy-4-hydroxybenzoyl]	no observable tubulin polymerization inhibition activity; also recorded: failed to inhibit tubulin polymerization	failed to show measurable activity	> 100 µg/mL	–
COc1ccc(-c2sc3cc(OC)ccc3c2C(=O)c2cc(OC)cc(OC)c2)cc1 [3,5-dimethoxybenzoyl, 3-(3',5'-dimethoxybenzoyl)-2-(4'-methoxyphenyl)-6-methoxybenzo[b]thiophene]	no observable tubulin polymerization inhibition activity; also recorded: failed to inhibit tubulin polymerization	failed to show measurable activity	> 100 µg/mL	–
COc1ccc(/C=C\c2cc(OC)c(OC)c(OC)c2)cc1N(Cc1ccccc1)Cc1ccccc1 [5-[(Z)-2-(3',4',5'-trimethoxyphenyl)ethenyl]-2-methoxy-N,N-bis-(phenylmethyl)aniline, reference compound]	–	–	33.9 µg/mL (≈ 68.4 µM)	–
COc1ccc(/C=C\c2cc(OC)c(OC)c(OC)c2)cc1O [Combretastatin A-4]	–	–	–	binding affinity for tubulin, cis (Z) form compared to trans (E) counterpart (tubulin [3]): much higher binding affinity for tubulin
O=C(Cn1ccnc1[N+](=O)[O-])NCc1ccccc1 [benznidazole]	–	–	–	genotoxicity in children [4]: may also cause genotoxicity in children; adverse effects [4]: thrombocytopenic purpura and polyneropathy
CC1CS(=O)(=O)CCN1/N=C/c1ccc([N+](=O)[O-])o1 (stereo not drawn) [nifurtimox]	–	–	–	genotoxicity in children [4]: may also cause genotoxicity in children; adverse effects [4]: thrombocytopenic purpura and polyneropathy
CC/C(=C(\c1ccccc1)c1ccc(OCCN(C)C)cc1)c1ccccc1 [tamoxifen]	–	–	–	intrinsic estrogen agonist properties (estrogen): retain some intrinsic estrogen agonist properties
COc1ccc(C2=C(C(=O)c3ccc(OCCN4CCCC4)cc3)c3ccccc3CC2)cc1 [trioxifene mesylate]	–	–	–	anti-tumor effects compared with tamoxifen [5]: anti-tumor effects at the same or higher level as tamoxifen
